Assay results taken from US20140088124A1, “IMIDAZOLE DERIVATIVES” (priority 2011, published 2014).

Target: T1, human DGAT1 (Homo sapiens, UniProt O75907)
T1 sequence (O75907 1-488): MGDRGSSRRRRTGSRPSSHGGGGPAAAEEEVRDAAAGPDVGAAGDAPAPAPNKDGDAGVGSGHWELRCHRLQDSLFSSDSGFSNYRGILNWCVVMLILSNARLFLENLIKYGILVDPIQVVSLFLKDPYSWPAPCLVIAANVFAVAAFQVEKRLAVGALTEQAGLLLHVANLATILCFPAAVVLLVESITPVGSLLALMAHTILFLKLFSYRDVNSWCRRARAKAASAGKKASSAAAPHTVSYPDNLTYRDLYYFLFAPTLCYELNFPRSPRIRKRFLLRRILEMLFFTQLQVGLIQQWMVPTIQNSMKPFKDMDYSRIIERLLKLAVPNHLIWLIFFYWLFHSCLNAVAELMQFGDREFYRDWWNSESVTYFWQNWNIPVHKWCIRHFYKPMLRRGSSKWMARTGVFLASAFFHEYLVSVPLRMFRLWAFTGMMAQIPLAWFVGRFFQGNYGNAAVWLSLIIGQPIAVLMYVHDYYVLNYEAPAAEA
Experiment: DGAT1 CPM Assay
Format: biochemical
Settings: human DGAT1, CPM fluorescence, 1 hour incubation at room temperature
Experimental: 20 uL of 90 uM CPM reagent in 90% ethanol was added after 1 hour incubation at room temperature.

SMILES | IC50 [nM]
O=C(NS(=O)(=O)c1ccc(F)cc1)[C@H]1CC[C@H](OC2CCN(c3ccc(-c4nc5cc(F)ccc5[nH]4)cn3)CC2)CC1 [Example 88] | 9
COc1ccc2[nH]c(-c3ccc(N4CCC(O[C@H]5CC[C@H](CC(=O)O)CC5)CC4)nc3)nc2n1 [Example 22] | 51
O=C(O)c1ccc(OC2CCN(c3ccc(-c4nc5ccc(C(F)(F)F)cc5[nH]4)cn3)CC2)nc1 [Example 123] | 2
CS(=O)(=O)NC(=O)[C@H]1CC[C@H](OC2CCN(c3ccc(-c4nc5cc(F)ccc5[nH]4)cn3)CC2)CC1 [Example 86] | 19
O[C@@H]1CO[C@H]2[C@@H]1OC[C@@H]2OC1CCN(c2ccc(-c3nc4cc(F)ccc4[nH]3)cn2)CC1 [Example 125] | 64
N#Cc1ccc2[nH]c(-c3ccc(N4CCC(OC5CC(C(=O)O)(C(=O)O)C5)CC4)nc3)nc2c1 [Example 96] | 277
CC(C)(COC1CCN(c2ccc(-c3nc4cc(C(F)(F)F)cnc4[nH]3)cn2)CC1)C(=O)O [Example 61] | 46
O=C(O)CC1C[C@@H]2CC(OC3CCN(c4ccc(-c5nc6ccc(C(F)(F)F)cc6[nH]5)cn4)CC3)C[C@@H]2C1 (stereo partly drawn) [Example 56] | 2
O=C(O)C[C@H]1CC[C@H](OC2CCN(c3ccc(-c4nc5cc(C(F)(F)F)cnc5[nH]4)cn3)CC2)CC1 [Example 17] | 24
O=C(O)C1(COC2CCN(c3ccc(-c4nc5ccccc5[nH]4)cn3)CC2)CCOCC1 [Example 49] | 220
CCOC(=O)[C@H]1CC[C@H](OC2CCN(c3ccc(-c4nc5cc(Cl)ccc5[nH]4)cn3)CC2)CC1 [Example 72] | 35
O=C(O)C[C@H]1CC[C@@H](OC2CCN(c3ccc(-c4nc5ccccc5[nH]4)cn3)CC2)CC1 [Example 8] | 15
O=C(O)C[C@H]1CC[C@@H](OC2CCN(c3ccc(-c4nc5cc(F)ccc5[nH]4)cn3)C2)CC1 (single isomer, unassigned) [Example 139] | 12
Cc1cc(N2CCC(O[C@H]3CC[C@@H](CC(=O)O)CC3)CC2)ncc1-c1nc2ccccc2[nH]1 [Example 13] | 147
CC(C)(COC1CCN(c2ccc(-c3nc4cc(Cl)cnc4[nH]3)cn2)CC1)C(=O)O [Example 63] | 118
O=C(O)c1cccc(OC2CCN(c3ccc(-c4nc5cc(Cl)ccc5[nH]4)cn3)CC2)c1 [Example 132] | 2
COc1ccc2[nH]c(-c3ccc(N4CCC(OCC(C)(C)C(=O)O)CC4)nc3)nc2n1 [Example 66] | 140
C[C@]1(C(=O)O)CC[C@H](OC2CCN(c3ccc(-c4nc5ccc(F)cc5[nH]4)cn3)CC2)CC1 [Example 99] | 9
O=C(O)C1(COC2CCN(c3ccc(-c4nc5ccc(F)cc5[nH]4)cn3)CC2)CCOCC1 [Example 46] | 97
O=C(O)C1(C(=O)O)CC(OC2CCN(c3ccc(-c4nc5ccccc5[nH]4)cn3)CC2)C1 [Example 92] | 147
COc1ccc2nc(-c3ccc(N4CCC(OCC5(C(=O)O)CCC5)CC4)nc3)[nH]c2n1 [Example 44] | 89
Cc1ccc2[nH]c(-c3ccc(N4CCC(OCC(C)(C)C(=O)O)CC4)nc3)nc2n1 [Example 65] | 790
O=C(O)c1cc(OC2CCN(c3ccc(-c4nc5cc(Cl)ccc5[nH]4)cn3)CC2)no1 [Example 130] | 15
O=C(O)c1cncc(OC2CCN(c3ccc(-c4nc5cc(C(F)(F)F)ccc5[nH]4)cn3)CC2)c1 [Example 115, 5-[(1-{5-[5-(trifluoromethyl)-1H-benzimidazol-2-yl]pyridin-2-yl}piperidin-4-yl)oxy]pyridine-3-carboxylic acid] | 28
O=C(O)[C@H]1C[C@H](OC2CCN(c3ccc(-c4nc5ccc(C(F)(F)F)cc5[nH]4)cn3)CC2)C1 [Example 33, trans-3-[(1-{5-[6-(trifluoromethyl)-1H-benzimidazol-2-yl]pyridin-2-yl}piperidin-4-yl)oxy]cyclobutanecarboxylic acid] | 7
O=C(O)CC1C[C@@H]2CC(OC3CCN(c4ccc(-c5nc6ccc(C(F)(F)F)cc6[nH]5)cn4)CC3)C[C@@H]2C1 (stereo partly drawn) [Example 57] | 2

SMILES | IC50 [nM]
O=C1CN([C@H]2CC[C@@H](OC3CCN(c4ccc(-c5nc6ccccc6[nH]5)cn4)CC3)CC2)S(=O)(=O)N1 [Example 121] | 45
O=C(O)C[C@H]1CC[C@H](OC2CCN(c3ccc(-c4nc5ccc(F)cc5[nH]4)cn3)CC2)CC1 [Example 1, [trans-4-({1-[5-(6-fluoro-1H-benzimidazol-2-yl)pyridin-2-yl]piperidin-4-yl}oxy)cyclohexyl]acetic acid] | 6
O=C(O)c1ccc(OC2CCN(c3ccc(-c4nc5cc(Cl)ccc5[nH]4)cn3)CC2)cc1 [Example 131] | 2
O=C(O)CC1CC(OC2CCN(c3ccc(-c4nc5ccc(C(F)(F)F)cc5[nH]4)cn3)CC2)C1 (stereo not drawn) [Example 52] | 10
O=C(O)[C@@H]1[C@@H]2C[C@H](OC3CCN(c4ccc(-c5nc6cc(C(F)(F)F)ccc6[nH]5)cn4)CC3)C[C@@H]21 [Example 135] | 11
O=C(O)c1cccc(OC2CCN(c3ccc(-c4nc5cc(C(F)(F)F)ccc5[nH]4)cn3)CC2)c1 [Example 114, 3-[(1-{5-[5-(trifluoromethyl)-1H-benzimidazol-2-yl]pyridin-2-yl}piperidin-4-yl)oxy]benzoic acid] | 9
O=C1CN([C@H]2CC[C@H](OC3CCN(c4ccc(-c5nc6cc(F)c(F)cc6[nH]5)cn4)CC3)CC2)S(=O)(=O)N1 [Example 119] | 4
C[C@]1(C(=O)O)CC[C@@H](OC2CCN(c3ccc(-c4nc5cc(F)c(F)cc5[nH]4)cn3)CC2)CC1 [Example 106] | 15
C[C@]1(C(=O)O)CC[C@@H](OC2CCN(c3ccc(-c4nc5ncc(Cl)cc5[nH]4)cn3)CC2)CC1 [Example 108] | 125
O=C(NS(=O)(=O)c1ccccc1)[C@H]1CC[C@H](OC2CCN(c3ccc(-c4nc5cc(F)ccc5[nH]4)cn3)CC2)CC1 [Example 87] | 14
O=C(O)[C@H]1CC[C@H](OC2CCN(c3ccc(-c4nc5cc(Cl)ccc5[nH]4)cn3)CC2)CC1 [Example 71] | 3
O=C(O)[C@@H]1[C@@H]2C[C@@H](OC3CCN(c4ccc(-c5nc6cc(C(F)(F)F)ccc6[nH]5)cn4)CC3)C[C@@H]21 [Example 136] | 6
COC(=O)c1cccc(COC2CCN(c3ccc(-c4nc5cc(C(F)(F)F)ccc5[nH]4)cn3)CC2)c1 [Example 116] | 99
COC(=O)c1cccc(OC2CCN(c3ccc(-c4nc5cc(C(F)(F)F)ccc5[nH]4)cn3)CC2)c1 [Example 113, Methyl 3-[(1-{5-[5-(trifluoromethyl)-1H-benzimidazol-2-yl]pyridin-2-yl}piperidin-4-yl)oxy]benzoate] | 520
O=C(O)[C@H]1CC[C@H](OC2CCN(c3ccc(-c4nc5cc(C(F)(F)F)ccc5[nH]4)cn3)CC2)CC1 [Example 69, trans-4-[(1-{5-[5-(trifluoromethyl)-1H-benzimidazol-2-yl]pyridin-2-yl}piperidin-4-yl)oxy]cyclohexanecarboxylic acid] | 2
CCCCc1ccc2nc(-c3ccc(N4CCC(O[C@H]5CC[C@@H](CC(=O)O)CC5)CC4)nc3)[nH]c2c1 [Example 24, [cis-4-({1-[5-(6-butyl-1H-benzimidazol-2-yl)pyridin-2-yl]piperidin-4-yl}oxy)cyclohexyl]acetic acid] | 4
O=C(O)C[C@H]1CC[C@H](OC2CCN(c3ccc(-c4nc5cc(F)c(F)cc5[nH]4)cn3)CC2)CC1 [Example 16, [trans-4-({1-[5-(5,6-difluoro-1H-benzimidazol-2-yl)pyridin-2-yl]piperidin-4-yl}oxy)cyclohexyl]acetic acid] | 4
CC1(S(=O)(=O)NC(=O)[C@H]2CC[C@H](OC3CCN(c4ccc(-c5nc6cc(F)ccc6[nH]5)cn4)CC3)CC2)CC1 [Example 80, trans-4-({1-[5-(5-fluoro-1H-benzimidazol-2-yl)pyridin-2-yl]piperidin-4-yl}oxy)-N-[(1-methylcyclopropyl)sulfonyl]cyclohexanecarboxamide] | 23
CC(C)(COC1CCN(c2ccc(-c3nc4cc(F)c(F)cc4[nH]3)cn2)CC1)C(=O)O [Example 60] | 16
O=C(O)C[C@H]1CC[C@@H](OC2CCN(c3ccc(-c4nc5cc(F)c(F)cc5[nH]4)cn3)CC2)CC1 [Example 25] | 3
CC(C)(COC1CCN(c2ccc(-c3nc4cc(Cl)c(Cl)cc4[nH]3)cn2)CC1)C(=O)O [Example 64] | 2
Cc1nc(N2CCC(O[C@H]3CC[C@@H](CC(=O)O)CC3)CC2)ccc1-c1nc2ccccc2[nH]1 [Example 11] | 6600
O=C(O)C[C@H]1CC[C@@H](O[C@H]2C[C@H]3C[C@@H]2CN3c2ccc(-c3nc4cc(F)ccc4[nH]3)cn2)CC1 (single isomer, unassigned; enantiomer 1) [Example 28, [cis-4-({2-[5-(5-fluoro-1-benzimidazol-2-yl)pyridin-2-yl]-2-azabicyclo[2.2.1]hept-5-yl}oxy)cyclohexyl]acetic acid enantiomer 1] | 23
O=C(O)CC1CC(OC2CCN(c3ccc(-c4nc5ccc(C(F)(F)F)cc5[nH]4)cn3)CC2)C1 (stereo not drawn) [Example 51] | 6
C[C@]1(C(=O)O)C[C@@H](OC2CCN(c3ccc(-c4nc5cc(C(F)(F)F)ccc5[nH]4)cn3)CC2)C1 [Example 104] | 6
